Experimental data reported in patent US12227482B2, “Compounds and compositions for the treatment of cancer” (The Regents of the University of California, priority 2016, dated 2025).

Assays:
Type in all cases: cell-based
Conditions in all cases: 72 hours treatment, cell survival by CellTiter-Glo, 2% fetal bovine serum
A549 cells = assay: Cell viability (CellTiter-Glo ATP content) in A549 cells
How it was run: (§1)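 Cells plated at 5,000 per well in antibiotic-free RPMI with 2% FBS, treated next day in triplicate with increasing compound doses (final DMSO 0.5%) for 72 hours. Viability read as ATP content by CellTiter-Glo luminescence; percent survival relative to vehicle control set as 100%.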

LOX cells = assay: Cell viability (CellTiter-Glo ATP content) in LOX cells
How it was run: as §1

MelJuSo cells = assay: Cell viability (CellTiter-Glo ATP content) in MelJuSo cells
How it was run: as §1

| Compound | IC50 (A549 cells; Homo sapiens, A549, 72 h) | IC50 (LOX cells; LOX, 72 h) | IC50 (MelJuSo cells; Homo sapiens, MEL-JUSO) | IC50 (A549 cells) | IC50 (LOX cells) | IC50 (MelJuSo cells) |
| --- | --- | --- | --- | --- | --- | --- |
| CCCCC1C(c2ccc(F)cc2F)=NN(c2ccccc2)C1(C)C(=O)NCCCC(C)(C)CO (stereo not drawn) [Compound 56, 4-butyl-3-(2,4-difluorophenyl)-N-(5-hydroxy-4,4-dimethylpentyl)-5-methyl-1-phenyl-4,5-dihydro-1H-pyrazole-5-carboxamide] | > 2 µM | 1 to 2 µM | 0.5 to 1 µM |  |  |  |
| CCCCC1C(c2ccc(F)cc2F)=NN(c2ccccc2)C1(C)C(=O)NCCOC (stereo not drawn) [Compound 57, 4-butyl-3-(2,4-difluorophenyl)-N-(2-methoxyethyl)-5-methyl-1-phenyl-4,5-dihydro-1H-pyrazole-5-carboxamide] | 1 to 2 µM | 0.5 to 1 µM | 0.5 to 1 µM |  |  |  |
| CCCCC1C(c2ccc(Cl)cc2)=NN(c2ccccc2)C1(C)C(=O)NCCOC (stereo not drawn) [Compound 58, 4-butyl-3-(4-chlorophenyl)-N-(2-methoxyethyl)-5-methyl-1-phenyl-4,5-dihydro-1H-pyrazole-5-carboxamide] | > 2 µM | 1 to 2 µM | 1 to 2 µM |  |  |  |
| CCCCC1C(c2ccc(F)cc2)=NN(c2ccc(C)cc2)C1(C)C(=O)NCCOC (stereo not drawn) [Compound 59, 4-butyl-3-(4-fluorophenyl)-N-(2-methoxyethyl)-5-methyl-1-p-tolyl-4,5-dihydro-1H-pyrazole-5-carboxamide] | 0.25 to 0.5 µM | < 0.25 µM | < 0.25 µM |  |  |  |
| COCCNC(=O)C1(C)C(c2cccs2)C(c2ccc(F)cc2)=NN1c1ccc(F)cc1F (stereo not drawn) [Compound 60, 1-(2,4-difluorophenyl)-3-(4-fluorophenyl)-N-(2-methoxyethyl)-5-methyl-4-(thiophen-2-yl)-4,5-dihydro-1H-pyrazole-5-carboxamide] | 0.25 to 0.5 µM | < 0.25 µM | < 0.25 µM |  |  |  |
| CCCCC1C(c2ccc(F)cc2)=NN(c2cccc(C)c2)C1(C)C(=O)NCCCC(C)(C)CO (stereo not drawn) [Compound 61, 4-butyl-3-(4-fluorophenyl)-N-(5-hydroxy-4,4-dimethylpentyl)-5-methyl-1-m-tolyl-4,5-dihydro-1H-pyrazole-5-carboxamide] | > 2 µM | 1 to 2 µM | 0.5 to 1 µM |  |  |  |
| CCCCC1C(c2ccc(F)cc2)=NN(c2ccc(C)cc2)C1(C)C(=O)NCCCC(C)(C)CO (stereo not drawn) [Compound 62, 4-butyl-3-(4-fluorophenyl)-N-(5-hydroxy-4,4-dimethylpentyl)-5-methyl-1-p-tolyl-4,5-dihydro-1H-pyrazole-5-carboxamide] |  |  |  | > 2 µM | 0.5 to 1 µM | 0.25 to 0.5 µM |
| COCCNC(=O)C1(C)C(c2cccs2)C(c2ccc(F)cc2)=NN1c1ccc(C)cc1 (stereo not drawn) [Compound 63, 3-(4-fluorophenyl)-N-(2-methoxyethyl)-5-methyl-4-(thiophen-2-yl)-1-p-tolyl-4,5-dihydro-1H-pyrazole-5-carboxamide] | 0.25 to 0.5 µM | < 0.25 µM | < 0.25 µM |  |  |  |
| CCCCC1C(c2ccc(F)cc2)=NN(c2ccc(Cl)cc2F)C1(C)C(=O)NCCOC (stereo not drawn) [Compound 64, 4-butyl-1-(4-chloro-2-fluorophenyl)-3-(4-fluorophenyl)-N-(2-methoxyethyl)-5-methyl-4,5-dihydro-1H-pyrazole-5-carboxamide] | 0.25 to 0.5 µM | < 0.25 µM | < 0.25 µM |  |  |  |
| CCCCC1C(c2ccc(F)cc2)=NN(c2ccccc2)C1(C)C(=O)NCCCN1CCOCC1 (stereo not drawn) [Compound 65, 4-butyl-3-(4-fluorophenyl)-5-methyl-N-(3-morpholinopropyl)-1-phenyl-4,5-dihydro-1H-pyrazole-5-carboxamide] | > 2 µM | > 2 µM | > 2 µM |  |  |  |
| CCCCC1C(c2ccc(F)cc2)=NN(c2ccccc2)C1(C)C(=O)NCc1ccc(O)c(OC)c1 (stereo not drawn) [Compound 66, 4-butyl-3-(4-fluorophenyl)-N-(4-hydroxy-3-methoxybenzyl)-5-methyl-1-phenyl-4,5-dihydro-1H-pyrazole-5-carboxamide] | > 2 µM | > 2 µM | > 2 µM |  |  |  |
| CCCCC1C(c2ccc(F)cc2)=NN(c2ccccc2)C1(C)C(=O)NCc1cccs1 (stereo not drawn) [Compound 67, 4-butyl-3-(4-fluorophenyl)-5-methyl-1-phenyl-N-(thiophen-2-ylmethyl)-4,5-dihydro-1H-pyrazole-5-carboxamide] | > 2 µM | > 2 µM | > 2 µM |  |  |  |
| CCCCC1C(c2ccc(F)cc2)=NN(c2ccccc2)C1(C)C(=O)NCC1CCCCO1 (stereo not drawn) [Compound 68, 4-butyl-3-(4-fluorophenyl)-5-methyl-1-phenyl-N-((tetrahydro-2H-pyran-2-yl)methyl)-4,5-dihydro-1H-pyrazole-5-carboxamide] | > 2 µM | 1 to 2 µM | 0.5 to 1 µM |  |  |  |
| CCCCC1C(c2ccc(F)cc2)=NN(c2ccccc2)C1(C)C(=O)NC(C)c1ccc(S(C)(=O)=O)cc1 (stereo not drawn) [Compound 69, 4-butyl-3-(4-fluorophenyl)-5-methyl-N-(1-(4-(methylsulfonyl)phenyl)ethyl)-1-phenyl-4,5-dihydro-1H-pyrazole-5-carboxamide] | > 2 µM | > 2 µM | > 2 µM |  |  |  |
| CCCCC1C(c2ccc(F)cc2)=NN(c2ccccc2)C1(C)C(=O)NCCF (stereo not drawn) [Compound 70, 4-butyl-N-(2-fluoroethyl)-3-(4-fluorophenyl)-5-methyl-1-phenyl-4,5-dihydro-1H-pyrazole-5-carboxamide] | > 2 µM | 1 to 2 µM | 0.5 to 1 µM |  |  |  |
| CCCCC1C(c2ccc(F)cc2)=NN(c2ccccc2)C1(C)C(=O)NCCCN1CCCCC1 (stereo not drawn) [Compound 71, 4-butyl-3-(4-fluorophenyl)-5-methyl-1-phenyl-N-(3-(piperidin-1-yl)propyl)-4,5-dihydro-1H-pyrazole-5-carboxamide] | > 2 µM | > 2 µM | > 2 µM |  |  |  |
| CCCCC1C(c2ccc(F)cc2)=NN(c2ccccc2)C1(C)C(=O)NCC(C)(C)C (stereo not drawn) [Compound 72, 4-butyl-3-(4-fluorophenyl)-5-methyl-N-neopentyl-1-phenyl-4,5-dihydro-1H-pyrazole-5-carboxamide] | > 2 µM | > 2 µM | > 2 µM |  |  |  |
| CCCCC1C(c2ccc(F)cc2)=NN(c2ccccc2)C1(C)C(=O)NCC1CC1 (stereo not drawn) [Compound 73, 4-butyl-N-(cyclopropylmethyl)-3-(4-fluorophenyl)-5-methyl-1-phenyl-4,5-dihydro-1H-pyrazole-5-carboxamide] | > 2 µM | 1 to 2 µM | 1 to 2 µM |  |  |  |
| CCCCC1C(c2ccc(F)cc2)=NN(c2ccccc2)C1(C)C(=O)NCC(C)(C)N(C)C (stereo not drawn) [Compound 74, 4-butyl-N-(2-(dimethylamino)-2-methylpropyl)-3-(4-fluorophenyl)-5-methyl-1-phenyl-4,5-dihydro-1H-pyrazole-5-carboxamide] | > 2 µM | > 2 µM | > 2 µM |  |  |  |
| CCCCC1C(c2ccc(F)cc2)=NN(c2ccccc2)C1(C)C(=O)NCCC(C)N(C)C (stereo not drawn) [Compound 75, 4-butyl-N-(3-(dimethylamino)butyl)-3-(4-fluorophenyl)-5-methyl-1-phenyl-4,5-dihydro-1H-pyrazole-5-carboxamide] | 0.5 to 1 µM | > 2 µM | > 2 µM |  |  |  |
| CCCCC1C(c2ccc(F)cc2)=NN(c2ccccc2)C1(C)C(=O)NCC(C)N(C)C (stereo not drawn) [Compound 76, 4-butyl-N-(2-(dimethylamino)propyl)-3-(4-fluorophenyl)-5-methyl-1-phenyl-4,5-dihydro-1H-pyrazole-5-carboxamide] | > 2 µM | > 2 µM | > 2 µM |  |  |  |
| CCCCC1C(c2ccc(F)cc2)=NN(c2ccccc2)C1(C)C(=O)NCC(C)CN(C)C (stereo not drawn) [Compound 77, 4-butyl-N-(3-(dimethylamino)-2-methylpropyl)-3-(4-fluorophenyl)-5-methyl-1-phenyl-4,5-dihydro-1H-pyrazole-5-carboxamide] | 0.25 to 0.5 µM | > 2 µM | > 2 µM |  |  |  |
| CCCCC1C(c2ccc(F)cc2)=NN(c2ccccc2)C1(C)C(=O)N(CCO)Cc1ccccc1 (stereo not drawn) [Compound 78, N-benzyl-4-butyl-3-(4-fluorophenyl)-N-(2-hydroxyethyl)-5-methyl-1-phenyl-4,5-dihydro-1H-pyrazole-5-carboxamide] | > 2 µM | > 2 µM | > 2 µM |  |  |  |
| CCCCC1C(c2ccc(F)cc2)=NN(c2ccccc2)C1(C)C(=O)NCCS(C)(=O)=O (stereo not drawn) [Compound 79, 4-butyl-3-(4-fluorophenyl)-5-methyl-N-(2-(methylsulfonyl)ethyl)-1-phenyl-4,5-dihydro-1H-pyrazole-5-carboxamide] | > 2 µM | > 2 µM | > 2 µM |  |  |  |
| CCCCC1C(c2ccc(F)cc2)=NN(c2ccccc2)C1(C)C(=O)NCc1ccc(CN2CCOCC2)cc1 (stereo not drawn) [Compound 80, 4-butyl-3-(4-fluorophenyl)-5-methyl-N-(4-(morpholinomethyl)benzyl)-1-phenyl-4,5-dihydro-1H-pyrazole-5-carboxamide] | > 2 µM | > 2 µM | > 2 µM |  |  |  |
| CCCCC1C(c2ccc(F)cc2)=NN(c2ccc(F)cc2F)C1(C)C(=O)NCC(=O)OC (stereo not drawn) [Compound 81, methyl 2-(4-butyl-1-(2,4-difluorophenyl)-3-(4-fluorophenyl)-5-methyl-4,5-dihydro-1H-pyrazole-5-carboxamido)acetate] | 0.5 to 1 µM | 0.5 to 1 µM | < 0.25 µM |  |  |  |
| CCCCC1C(c2ccc(F)cc2)=NN(c2ccc(F)cc2F)C1(C)C(=O)NCC(=O)O (stereo not drawn) [Compound 82, 2-(4-butyl-1-(2,4-difluorophenyl)-3-(4-fluorophenyl)-5-methyl-4,5-dihydro-1H-pyrazole-5-carboxamido)acetic acid] | > 2 µM | > 2 µM | > 2 µM |  |  |  |
| CCCCC1C(c2ccc(F)cc2)=NN(c2ccc(F)cc2F)C1(C)C(=O)NCCC#N (stereo not drawn) [Compound 83, 4-butyl-N-(2-cyanoethyl)-1-(2,4-difluorophenyl)-3-(4-fluorophenyl)-5-methyl-4,5-dihydro-1H-pyrazole-5-carboxamide] | 1 to 2 µM | 1 to 2 µM | 0.5 to 1 µM |  |  |  |
